{"source": "ChEMBL document CHEMBL4184163", "about": "“Aspergillus candidus is a newly recognized source of sphaeropsidin A: Isolation, semi-synthetic derivatization and anticancer evaluation” (Bioorg Med Chem Lett, 2017)", "key": {"Homo sapiens [1]": {"organism": "Homo sapiens", "test": "Antiproliferative activity against human D423 cells grown as 2D culture at 0.0625 to 10 uM after 5 days by CellTiter-Glo luminescence assay", "format": "functional, cell-based"}, "Homo sapiens [2]": {"organism": "Homo sapiens", "test": "Antiproliferative activity against human GLI56 cells grown as 2D culture at 0.0625 to 10 uM after 5 days by CellTiter-Glo luminescence assay", "format": "functional, cell-based"}, "Homo sapiens [3]": {"organism": "Homo sapiens", "test": "Antiproliferative activity against human D423 cells grown as 3D culture at 10 uM after 5 days by CellTiter-Glo 3D viability assay", "format": "functional, cell-based"}, "Homo sapiens [4]": {"organism": "Homo sapiens", "test": "Antiproliferative activity against human GLI56 cells grown as 3D culture at 10 uM after 5 days by CellTiter-Glo 3D viability assay", "format": "functional, cell-based"}, "Homo sapiens [5]": {"organism": "Homo sapiens", "test": "Cytotoxicity against human GLI56 cells grown as 3D culture assessed as disruption of morphological integrity at 10 uM after 5 days by confocal laser scanning microscopic method", "format": "functional, cell-based"}, "[6]": {"test_system": "Panel NCI-60 (60 carcinoma cell lines)", "test": "Growth inhibition of human NCI60 cells", "format": "functional"}, "[7]": {"test": "Growth inhibition of normal human epidermal melanocytes by MTT assay", "format": "cell-based, Melanocyte"}, "Homo sapiens [8]": {"organism": "Homo sapiens", "test": "Cytotoxicity against human D423 cells grown as 3D culture assessed as disruption of morphological integrity at 10 uM after 5 days by confocal laser scanning microscopic method", "format": "functional, cell-based"}}, "note": "Active and inactive are the calls of the source. No cut-off for these calls is given here.", "data": [{"compound": "C=C[C@]1(C)C=C2C(=O)[C@@]3(O)OC(=O)[C@@]4(CCCC(C)(C)[C@H]34)[C@@]2(O)CC1", "note": "[SPHAEROPSIDIN A]", "values": [{"measurement": "Activity", "setting": "Homo sapiens [1]", "result": "Active"}, {"measurement": "Activity", "setting": "Homo sapiens [2]", "result": "Active"}, {"measurement": "Activity", "setting": "Homo sapiens [3]", "result": "inactive"}, {"measurement": "Activity", "setting": "Homo sapiens [4]", "result": "inactive"}, {"measurement": "Activity", "setting": "Homo sapiens [5]", "result": "inactive"}, {"measurement": "GI50", "setting": "[6]", "result": 1.6, "unit": "µM"}, {"measurement": "GI50", "setting": "[7]", "result": 13, "unit": "µM"}]}, {"compound": "C=C[C@]1(C)C=C2C(=O)[C@@]3(OC(=O)CCC)OC(=O)[C@@]4(CCCC(C)(C)[C@H]34)[C@@]2(O)CC1", "values": [{"measurement": "Activity", "setting": "Homo sapiens [1]", "result": "Active"}, {"measurement": "Activity", "setting": "Homo sapiens [2]", "result": "Active"}, {"measurement": "Activity", "setting": "Homo sapiens [3]", "result": "inactive"}, {"measurement": "Activity", "setting": "Homo sapiens [4]", "result": "Active"}, {"measurement": "Activity", "setting": "Homo sapiens [5]", "result": "Active"}]}, {"compound": "C=CCCCC(=O)O[C@]12OC(=O)[C@@]3(CCCC(C)(C)[C@H]13)[C@@]1(O)CC[C@](C)(C=C)C=C1C2=O", "values": [{"measurement": "Activity", "setting": "Homo sapiens [1]", "result": "Active"}, {"measurement": "Activity", "setting": "Homo sapiens [2]", "result": "Active"}, {"measurement": "Activity", "setting": "Homo sapiens [3]", "result": "inactive"}, {"measurement": "Activity", "setting": "Homo sapiens [4]", "result": "Active"}, {"measurement": "Activity", "setting": "Homo sapiens [5]", "result": "Active"}]}, {"compound": "C=C[C@]1(C)C=C2C(=O)[C@@]3(OC(=O)c4ccc(C)o4)OC(=O)[C@@]4(CCCC(C)(C)[C@H]34)[C@@]2(O)CC1", "values": [{"measurement": "Activity", "setting": "Homo sapiens [1]", "result": "Active"}, {"measurement": "Activity", "setting": "Homo sapiens [2]", "result": "Active"}, {"measurement": "Activity", "setting": "Homo sapiens [3]", "result": "Active"}, {"measurement": "Activity", "setting": "Homo sapiens [8]", "result": "Active"}, {"measurement": "Activity", "setting": "Homo sapiens [4]", "result": "Active"}, {"measurement": "Activity", "setting": "Homo sapiens [5]", "result": "Active"}]}, {"compound": "CC1(C)CCC[C@]23C(=O)O[C@](O)(C(=O)C4=C[C@@](C)(/C=C/c5ccc(Cl)cc5)CC[C@@]42O)[C@@H]13", "values": [{"measurement": "Activity", "setting": "Homo sapiens [1]", "result": "Active"}, {"measurement": "Activity", "setting": "Homo sapiens [2]", "result": "Active"}, {"measurement": "Activity", "setting": "Homo sapiens [3]", "result": "Active"}, {"measurement": "Activity", "setting": "Homo sapiens [8]", "result": "Active"}, {"measurement": "Activity", "setting": "Homo sapiens [4]", "result": "Active"}, {"measurement": "Activity", "setting": "Homo sapiens [5]", "result": "Active"}]}, {"compound": "CC1(C)CCC[C@]23C(=O)O[C@](O)(C(=O)C4=C[C@@](C)(/C=C/[Si](C)(C)C)CC[C@@]42O)[C@@H]13", "values": [{"measurement": "Activity", "setting": "Homo sapiens [1]", "result": "Active"}, {"measurement": "Activity", "setting": "Homo sapiens [2]", "result": "Active"}, {"measurement": "Activity", "setting": "Homo sapiens [3]", "result": "inactive"}, {"measurement": "Activity", "setting": "Homo sapiens [4]", "result": "inactive"}]}]}
